Source: the supplement of paper PMC8149375

Assays:
Settings in all cases: treatment: drug alone; 5 days
SN12C [1] = test: minimum viability across doses, drug alone, relative to DMSO (fraction); higher = less growth inhibition
Description: (§1)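 Primary HTS: 8 RCC cell lines treated with 8 doses (up to 10 uM) of each library drug alone for 5 days; viability read by CellTiter-Glo and normalised to DMSO. GI50 was fitted with XLfit (4-parameter), AUC is the area under the dose-response curve, and minimum viability is the lowest fraction of DMSO viability across doses.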

TK-10 [2] = test: as above
Description: as §1

UO-31 [3] = test: as above
Description: as §1

769-P [4] = test: as above
Description: as §1

786-O [5] = test: as above
Description: as §1

A498 [6] = test: as above
Description: as §1

ACHN [7] = test: as above
Description: as §1

CAKI-1 [8] = test: as above
Description: as §1

SN12C [9] = test: GI50, drug alone; higher = less potent
Description: as §1

TK-10 [10] = test: GI50, drug alone; higher = less potent
Description: as §1

UO-31 [11] = test: GI50, drug alone; higher = less potent
Description: as §1

769-P [12] = test: GI50, drug alone; higher = less potent
Description: as §1

786-O [13] = test: GI50, drug alone; higher = less potent
Description: as §1

A498 [14] = test: GI50, drug alone; higher = less potent
Description: as §1

ACHN [15] = test: GI50, drug alone; higher = less potent
Description: as §1

CAKI-1 [16] = test: GI50, drug alone; higher = less potent
Description: as §1

SN12C [17] = test: AUC of dose-response viability curve, drug alone (arbitrary (AUC of normalised viability)); higher = less growth inhibition
Description: as §1

TK-10 [18] = test: as above
Description: as §1

UO-31 [19] = test: as above
Description: as §1

769-P [20] = test: as above
Description: as §1

786-O [21] = test: as above
Description: as §1

A498 [22] = test: as above
Description: as §1

ACHN [23] = test: as above
Description: as §1

CAKI-1 [24] = test: as above
Description: as §1

SMILES | minimum viability across doses (SN12C [1]) | minimum viability across doses (TK-10 [2]) | minimum viability across doses (UO-31 [3]) | minimum viability across doses (769-P [4]) | minimum viability across doses (786-O [5]) | minimum viability across doses (A498 [6]) | minimum viability across doses (ACHN [7]) | minimum viability across doses (CAKI-1 [8]) | GI50, drug alone (SN12C [9]) | GI50, drug alone (TK-10 [10]) | GI50, drug alone (UO-31 [11]) | GI50, drug alone (769-P [12]) | GI50, drug alone (786-O [13]) | GI50, drug alone (A498 [14]) | GI50, drug alone (ACHN [15]) | GI50, drug alone (CAKI-1 [16]) | AUC of dose-response viability curve (SN12C [17]) | AUC of dose-response viability curve (TK-10 [18]) | AUC of dose-response viability curve (UO-31 [19]) | AUC of dose-response viability curve (769-P [20]) | AUC of dose-response viability curve (786-O [21]) | AUC of dose-response viability curve (A498 [22]) | AUC of dose-response viability curve (ACHN [23]) | AUC of dose-response viability curve (CAKI-1 [24])
CC(=O)c1c(C)c2cnc(Nc3ccc(N4CCNCC4)cn3)nc2n(C2CCCC2)c1=O.Cl | 0.427 | 0.185 | 0.549 | 0.0631 | 0.298 | 0.644 | 0.136 | 0.123 | 7210 nM | 1440 nM | > 10000 nM | 659 nM | 3880 nM | > 10000 nM | 360 nM | 811 nM | 3.17 | 2.43 | 4.32 | 2.31 | 2.8 | 4.74 | 2.04 | 2.44
COc1cc2c(Oc3ccc4[nH]c(C)cc4c3F)ncnc2cc1OCCCN1CCCC1 [Cediranib (AZD2171)] | 0.248 | 0.0469 | 0.0213 | 0.293 | 0.129 | 0.17 | 0.0987 | 0.0807 | 2870 nM | 2290 nM | 2980 nM | 5430 nM | 2600 nM | 5360 nM | 969 nM | 740 nM | 2.55 | 2.62 | 2.76 | 2.94 | 2.5 | 3.15 | 2.5 | 2.35
Cn1cc(C2=C(c3cn(C4CCN(Cc5ccccn5)CC4)c4ccccc34)C(=O)NC2=O)c2ccccc21 | 0.861 | 0.698 | 0.922 | 0.834 | 0.805 | 1.1 | 0.863 | 0.814 | > 10000 nM | > 10000 nM | > 10000 nM | > 10000 nM | > 10000 nM | > 10000 nM | > 10000 nM | > 10000 nM | 3.33 | 3.24 | 4.69 | 3.34 | 3.23 | 4.23 | 3.3 | 3.55
OCc1ccc(-c2ccc(-c3ccc(CO)s3)o2)s1 | 0.0662 | 0.032 | 0.0063 | 0.056 | 0.00113 | 0.419 | 0.0234 | 0.00454 | 582 nM | 29.4 nM | 389 nM | 42.7 nM | 27.5 nM | 7460 nM | 180 nM | 11.2 nM | 2.29 | 1.03 | 2.33 | 1.27 | 1.04 | 3.4 | 1.76 | 0.628
O=C1c2ccccc2-c2n[nH]c3cccc1c23 | 0.822 | 0.562 | 0.52 | 0.799 | 0.545 | 0.999 | 0.421 | 0.251 | > 10000 nM | > 10000 nM | > 10000 nM | > 10000 nM | > 10000 nM | > 10000 nM | 8890 nM | 6060 nM | 3.37 | 3.07 | 3.08 | 3.24 | 2.81 | 4.19 | 3.44 | 3.09
CN1CCN(c2nc(C3=C(c4c[nH]c5ccccc45)C(=O)NC3=O)c3ccccc3n2)CC1 [Sotrastaurin (AEB071)] | 0.91 | 0.805 | 1.38 | 0.969 | 0.911 | 1.12 | 0.743 | 0.783 | > 10000 nM | > 10000 nM | > 10000 nM | > 10000 nM | > 10000 nM | > 10000 nM | > 10000 nM | > 10000 nM | 3.44 | 3.23 | 5.49 | 2.58 | 4 | 4.36 | 3.2 | 3.38
CNC(=O)c1c(F)cccc1Nc1nc(Nc2cc3c(cc2OC)CCN3C(=O)CN(C)C)nc2[nH]ccc12 | 0.00561 | 0.142 | 0.0181 | 0.016 | 0.00507 | 0.0165 | 0.00292 | 0.00594 | 4020 nM | 3140 nM | 8350 nM | 2400 nM | 1490 nM | 8550 nM | 3020 nM | 3460 nM | 2.88 | 2.69 | 4.52 | 2.73 | 2.4 | 4.86 | 2.82 | 2.94
CCOC(=O)C1=C(N)Oc2ccc(Br)cc2[C@H]1[C@H](C#N)C(=O)OCC [HA14-1] | 0.867 | 0.948 | 0.891 | 0.973 | 0.81 | 0.885 | 0.852 | 0.957 | > 10000 nM | > 10000 nM | > 10000 nM | > 10000 nM | > 10000 nM | > 10000 nM | > 10000 nM | > 10000 nM | 3.19 | 3.55 | 4.2 | 3.84 | 3.27 | 3.57 | 3.35 | 3.67
Nc1ccc(C(=O)Nc2cccc(-c3nc(N4CCOCC4)c4oc5ncccc5c4n3)c2)cn1 | 0.46 | 0.11 | 0.0163 | 0.0884 | 0.00412 | 0.527 | 0.207 | 0.153 | 8230 nM | 1700 nM | 8080 nM | 3140 nM | 1110 nM | > 10000 nM | 1870 nM | 1190 nM | 3 | 2.64 | 5.57 | 3.04 | 2.4 | 4.39 | 2.63 | 2.63
O=C1NC(=O)/C(=C/c2ccc3nccnc3c2)S1 | 0.805 | 0.802 | 0.902 | 0.891 | 0.651 | 0.869 | 0.837 | 0.648 | > 10000 nM | > 10000 nM | > 10000 nM | > 10000 nM | > 10000 nM | > 10000 nM | > 10000 nM | > 10000 nM | 3.19 | 3.3 | 4.01 | 3.39 | 3.04 | 3.39 | 3.28 | 3.43
C=CC(=O)Nc1cccc(Oc2nc(Nc3ccc(N4CCN(C)CC4)cc3)ncc2Cl)c1 [WZ3146] | 0.0769 | 0.0399 | 0.0177 | 0.146 | 0.046 | 0.452 | 0.0569 | 0.0135 | 2340 nM | 504 nM | 2600 nM | 1900 nM | 1450 nM | 9890 nM | 496 nM | 958 nM | 2.85 | 2.07 | 3.76 | 2.71 | 2.27 | 3.49 | 2.34 | 2.62
Oc1cccc(-c2nc(N3CCOCC3)c3oc4ncccc4c3n2)c1 [PI-103] | 0.118 | 0.136 | 0.0085 | 0.0599 | 0.00638 | 0.0881 | 0.119 | 0.0544 | 360 nM | 527 nM | 339 nM | 1360 nM | 355 nM | 584 nM | 286 nM | 858 nM | 1.91 | 2.15 | 1.8 | 2.53 | 2 | 2.26 | 2.08 | 2.37
O=C(Nc1ccc(OC(F)(F)F)cc1)c1sccc1NCc1ccnc2ccccc12 [OSI-930] | 0.158 | 0.572 | 0.173 | 0.871 | 0.372 | 0.722 | 0.175 | 0.264 | 8320 nM | > 10000 nM | 1350 nM | > 10000 nM | 7470 nM | > 10000 nM | 5420 nM | 8110 nM | 3.5 | 3.23 | 3.46 | 3.39 | 2.81 | 3.58 | 3.25 | 3.63
O=C1NC(=O)/C(=C/c2ccc3nccc(-c4ccncc4)c3c2)S1 | 0.26 | 0.467 | 0.0334 | 0.43 | 0.216 | 0.341 | 0.219 | 0.125 | 1160 nM | 2290 nM | 498 nM | 6260 nM | 450 nM | 4570 nM | 1090 nM | 412 nM | 2.4 | 2.63 | 2.45 | 2.87 | 2.19 | 2.97 | 2.48 | 2.21
Cc1cnc(NC(=O)Nc2cc(Br)c(C)cc2OC[C@@H]2CNCCO2)cn1 | 0.175 | 0.156 | 0.00586 | 0.0604 | 0.00129 | 0.0991 | 0.0243 | 0.145 | 4660 nM | 580 nM | 745 nM | > 10000 nM | 342 nM | 3570 nM | 161 nM | 1390 nM | 3.07 | 2.25 | 3.67 | 2.27 | 2 | 3.76 | 1.82 | 2.83
CN1CCN(c2ccc3nc(-c4c(N)c5c(F)cccc5[nH]c4=O)[nH]c3c2)CC1 [Dovitinib (TKI-258)] | 0.079 | 0.252 | 0.207 | 0.0627 | 0.395 | 0.351 | 0.116 | 0.13 | 956 nM | 2260 nM | 3540 nM | 2560 nM | 6950 nM | 6940 nM | 510 nM | 451 nM | 2.36 | 2.5 | 3.69 | 2.64 | 3.27 | 3.15 | 2.18 | 2.18
Cc1ccc(NC(=O)c2cccc(C(C)(C)C#N)c2)cc1Nc1ccc2ncn(C)c(=O)c2c1 [AZ628] | 0.572 | 0.425 | 0.101 | 0.706 | 0.719 | 0.928 | 0.276 | 0.239 | > 10000 nM | 4670 nM | 4500 nM | > 10000 nM | > 10000 nM | > 10000 nM | 2710 nM | 4380 nM | 3.3 | 2.48 | 3.37 | 3.42 | 3.21 | 3.97 | 2.84 | 3.16
CCc1cnn2c(NCc3ccc[n+]([O-])c3)cc(N3CCCC[C@H]3CCO)nc12 | 0.0122 | 0.128 | 0.0105 | 0.0153 | 0.00554 | 0.00896 | 0.011 | 0.0724 | 14.7 nM | 21.8 nM | 11 nM | 29.8 nM | 6.29 nM | 13.6 nM | 17 nM | 14.7 nM | 0.716 | 1.15 | 0.612 | 1.04 | 0.398 | 0.65 | 0.783 | 0.874
COc1ccc(C2=NC(c3ccc(Cl)cc3)C(c3ccc(Cl)cc3)N2C(=O)N2CCNC(=O)C2)c(OC(C)C)c1 (stereo unspecified) [Nutlin-3] | 0.846 | 0.805 | 0.99 | 0.677 | 0.756 | 0.914 | 0.278 | 0.383 | > 10000 nM | > 10000 nM | > 10000 nM | > 10000 nM | > 10000 nM | > 10000 nM | 5640 nM | 8040 nM | 3.31 | 2.99 | 4.29 | 3.42 | 3.29 | 3.9 | 2.82 | 3.34
